According to ChEMBL document CHEMBL5126517, “Structure-Activity Relationship in the Leucettine Family of Kinase Inhibitors” (J Med Chem, 2022):
pEC50, pIC50: −log10 of the molar value.

System: not listed separately
Test: Neurotoxicity against mouse HT-22 cells assessed as cell survival at 20 uM treated for 24 hrs by MTS assay
Assay type: toxicity, cell-based
Conditions: ht-22, 24 h
For `CCSC1=N/C(=C\c2ccc3c(c2)OCO3)C(=O)N1C`, the Activity was “Non-Toxic”.
For `CSC1=N/C(=C\c2ccc3c(c2)OCO3)C(=O)N1`, the Activity was “Non-Toxic”.
For `O=C1NC(Nc2ccccc2)=N/C1=C\c1ccc2c(c1)CCO2`, the Activity was “Non-Toxic”.
In the case of `O=C1NC(N2CCC(N3CCCCC3)CC2)=N/C1=C\c1ccc2c(c1)OCO2`, the Activity was “Non-Toxic”.

Biological target: Dual specificity protein kinase CLK1 (Mus musculus, UniProt P22518)
Sequence (P22518 whole entry, the tested form may be a part): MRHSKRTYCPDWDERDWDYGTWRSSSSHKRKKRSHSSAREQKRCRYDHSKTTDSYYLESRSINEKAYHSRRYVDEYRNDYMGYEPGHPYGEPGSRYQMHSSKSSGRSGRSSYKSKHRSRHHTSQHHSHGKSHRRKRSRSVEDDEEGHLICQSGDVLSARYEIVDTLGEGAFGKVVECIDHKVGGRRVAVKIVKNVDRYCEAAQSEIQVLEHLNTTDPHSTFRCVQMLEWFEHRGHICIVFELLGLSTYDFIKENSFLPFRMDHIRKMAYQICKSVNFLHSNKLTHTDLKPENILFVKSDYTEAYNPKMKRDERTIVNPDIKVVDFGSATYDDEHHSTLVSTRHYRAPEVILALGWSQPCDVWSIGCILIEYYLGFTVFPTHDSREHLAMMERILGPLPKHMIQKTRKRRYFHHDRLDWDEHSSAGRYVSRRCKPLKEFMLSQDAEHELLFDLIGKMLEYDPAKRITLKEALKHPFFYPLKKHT
Test: Inhibition of GST-fused mouse recombinant CLK1 expressed in Escherichia coli using GRSRSRSRSRSR peptide as substrate incubated for 30 mins in presence of ATP by scintillation counting method
Conditions: not given
For `CCSC1=N/C(=C\c2ccc3c(c2)OCO3)C(=O)N1C`, the pIC50 was 6.92.
With `CSC1=N/C(=C\c2ccc3c(c2)OCO3)C(=O)N1` the pIC50 was 7.14.
With `O=C1NC(Nc2ccccc2)=N/C1=C\c1ccc2c(c1)CCO2` the pIC50 was 7.66.
For `O=C1NC(N2CCC(N3CCCCC3)CC2)=N/C1=C\c1ccc2c(c1)OCO2`, the pIC50 was 6.04.

Biological target: T1, Dual specificity tyrosine-phosphorylation-regulated kinase 2 (Homo sapiens, UniProt Q92630)
T1 sequence (Q92630 whole entry): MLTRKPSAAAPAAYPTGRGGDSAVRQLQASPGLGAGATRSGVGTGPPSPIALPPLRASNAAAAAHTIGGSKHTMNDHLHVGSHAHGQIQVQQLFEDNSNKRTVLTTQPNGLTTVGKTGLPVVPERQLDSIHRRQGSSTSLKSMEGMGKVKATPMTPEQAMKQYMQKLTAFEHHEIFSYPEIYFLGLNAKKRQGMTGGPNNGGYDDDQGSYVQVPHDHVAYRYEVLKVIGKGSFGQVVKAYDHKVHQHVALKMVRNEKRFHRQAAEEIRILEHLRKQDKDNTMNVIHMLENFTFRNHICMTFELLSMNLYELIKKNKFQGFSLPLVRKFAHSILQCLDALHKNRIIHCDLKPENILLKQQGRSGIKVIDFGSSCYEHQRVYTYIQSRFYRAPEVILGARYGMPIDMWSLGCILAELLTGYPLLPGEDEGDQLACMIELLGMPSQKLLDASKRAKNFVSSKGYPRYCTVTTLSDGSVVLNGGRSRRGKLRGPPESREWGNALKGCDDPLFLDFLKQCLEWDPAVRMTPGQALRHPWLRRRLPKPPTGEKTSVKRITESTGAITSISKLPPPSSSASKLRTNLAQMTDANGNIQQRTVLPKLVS
Test: Inhibition of GST-fused human recombinant DYRK2 expressed in Escherichia coli using GRSRSRSRSRSR peptide as substrate incubated for 30 mins in presence of ATP by scintillation counting method
Conditions: not given
With `CCSC1=N/C(=C\c2ccc3c(c2)OCO3)C(=O)N1C` the pIC50 was 6.47.
In the case of `CSC1=N/C(=C\c2ccc3c(c2)OCO3)C(=O)N1`, the pIC50 was 7.10.
`O=C1NC(Nc2ccccc2)=N/C1=C\c1ccc2c(c1)CCO2` gave a pIC50 of 7.39.
In the case of `O=C1NC(N2CCC(N3CCCCC3)CC2)=N/C1=C\c1ccc2c(c1)OCO2`, the pIC50 was 5.85.

System: HT-22
Test: Modulation of CLK1 pre-mRNA splicing in mouse HT-22 cells assessed as inclusion of CLK1 exon 4 by measuring change in threshold cycle at 10 uM measured after 4 hrs by real time PCR analysis
Assay type: cell-based
Conditions: filed as modulator
Compound `CCSC1=N/C(=C\c2ccc3c(c2)OCO3)C(=O)N1C` has a deltaCT of -0.99.
`CSC1=N/C(=C\c2ccc3c(c2)OCO3)C(=O)N1` showed a deltaCT of 0.13.
With `O=C1NC(N2CCC(N3CCCCC3)CC2)=N/C1=C\c1ccc2c(c1)OCO2` the deltaCT was 0.42.

Biological target: Dual specificity protein kinase CLK3 (Mus musculus, UniProt O35492)
Sequence (O35492 whole entry, the tested form may be a part): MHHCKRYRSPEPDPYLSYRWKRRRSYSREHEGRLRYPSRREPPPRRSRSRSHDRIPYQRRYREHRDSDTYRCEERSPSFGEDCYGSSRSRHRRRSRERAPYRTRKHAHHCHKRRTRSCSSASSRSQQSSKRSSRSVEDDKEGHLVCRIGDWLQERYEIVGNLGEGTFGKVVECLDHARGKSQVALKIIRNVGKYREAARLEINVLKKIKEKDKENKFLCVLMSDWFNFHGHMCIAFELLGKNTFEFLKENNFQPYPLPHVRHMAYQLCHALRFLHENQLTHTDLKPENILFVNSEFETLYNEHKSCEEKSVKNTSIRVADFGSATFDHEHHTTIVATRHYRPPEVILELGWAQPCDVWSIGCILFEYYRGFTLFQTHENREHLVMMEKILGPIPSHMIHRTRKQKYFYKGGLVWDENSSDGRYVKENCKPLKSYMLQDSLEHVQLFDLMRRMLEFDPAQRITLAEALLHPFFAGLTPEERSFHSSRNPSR
Test: Inhibition of GST-fused mouse recombinant CLK3 expressed in Escherichia coli using GRSRSRSRSRSR peptide as substrate incubated for 30 mins in presence of ATP by scintillation counting method
Conditions: not given
With `CCSC1=N/C(=C\c2ccc3c(c2)OCO3)C(=O)N1C` the pIC50 was 5.68.
`CSC1=N/C(=C\c2ccc3c(c2)OCO3)C(=O)N1` gave a pIC50 of 5.62.
For `O=C1NC(Nc2ccccc2)=N/C1=C\c1ccc2c(c1)CCO2`, the pIC50 was 5.92.
In the case of `O=C1NC(N2CCC(N3CCCCC3)CC2)=N/C1=C\c1ccc2c(c1)OCO2`, the pIC50 was less than 5.00.

Biological target: Serine/threonine-protein kinase pim-1 (Homo sapiens, UniProt P11309)
Sequence (P11309 whole entry): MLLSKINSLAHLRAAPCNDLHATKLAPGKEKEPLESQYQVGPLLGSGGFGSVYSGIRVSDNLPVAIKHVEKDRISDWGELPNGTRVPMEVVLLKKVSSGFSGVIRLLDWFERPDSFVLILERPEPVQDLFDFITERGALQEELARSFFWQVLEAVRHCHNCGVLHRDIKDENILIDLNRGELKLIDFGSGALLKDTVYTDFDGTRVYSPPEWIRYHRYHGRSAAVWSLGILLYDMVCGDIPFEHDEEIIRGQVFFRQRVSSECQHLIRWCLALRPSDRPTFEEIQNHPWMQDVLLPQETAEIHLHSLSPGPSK
Test: Inhibition of human recombinant Pim1 expressed in Escherichia coli using histone H1 as substrate incubated for 30 mins in presence of ATP by scintillation counting method
Conditions: not given
In the case of `CCSC1=N/C(=C\c2ccc3c(c2)OCO3)C(=O)N1C`, the pIC50 was 5.68.
For `CSC1=N/C(=C\c2ccc3c(c2)OCO3)C(=O)N1`, the pIC50 was 5.92.
`O=C1NC(Nc2ccccc2)=N/C1=C\c1ccc2c(c1)CCO2` showed a pIC50 of 5.49.
In the case of `O=C1NC(N2CCC(N3CCCCC3)CC2)=N/C1=C\c1ccc2c(c1)OCO2`, the pIC50 was 5.12.

Biological target: Dual specificity tyrosine-phosphorylation-regulated kinase 1B (Homo sapiens, UniProt Q9Y463)
Sequence (Q9Y463 whole entry): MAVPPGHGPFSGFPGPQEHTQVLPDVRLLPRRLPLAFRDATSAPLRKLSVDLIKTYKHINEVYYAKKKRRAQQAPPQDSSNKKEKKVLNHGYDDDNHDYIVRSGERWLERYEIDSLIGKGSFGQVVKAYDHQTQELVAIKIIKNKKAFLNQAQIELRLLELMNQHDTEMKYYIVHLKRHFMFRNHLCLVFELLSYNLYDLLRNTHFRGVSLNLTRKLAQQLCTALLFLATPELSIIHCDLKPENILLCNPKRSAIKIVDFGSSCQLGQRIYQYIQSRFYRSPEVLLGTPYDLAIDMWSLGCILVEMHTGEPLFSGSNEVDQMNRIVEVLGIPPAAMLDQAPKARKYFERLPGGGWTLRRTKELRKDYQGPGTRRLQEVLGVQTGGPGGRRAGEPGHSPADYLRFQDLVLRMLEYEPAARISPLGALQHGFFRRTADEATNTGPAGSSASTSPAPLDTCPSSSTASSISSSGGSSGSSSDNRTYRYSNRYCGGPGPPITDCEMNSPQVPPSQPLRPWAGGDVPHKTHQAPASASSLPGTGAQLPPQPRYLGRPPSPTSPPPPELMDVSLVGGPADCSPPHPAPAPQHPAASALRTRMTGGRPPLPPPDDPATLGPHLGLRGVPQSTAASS
Conditions: not given
`CCSC1=N/C(=C\c2ccc3c(c2)OCO3)C(=O)N1C` showed a pIC50 of 6.01.
With `CSC1=N/C(=C\c2ccc3c(c2)OCO3)C(=O)N1` the pIC50 was 6.48.
With `O=C1NC(Nc2ccccc2)=N/C1=C\c1ccc2c(c1)CCO2` the pIC50 was 7.06.
`O=C1NC(N2CCC(N3CCCCC3)CC2)=N/C1=C\c1ccc2c(c1)OCO2` showed a pIC50 of 5.36.

Biological target: Dual specificity tyrosine-phosphorylation-regulated kinase 1A (Homo sapiens, UniProt Q13627)
Test: Inhibition of GST-fused human recombinant DYRK1A expressed in Escherichia coli using GRSRSRSRSRSR peptide as substrate incubated for 30 mins in presence of ATP by scintillation counting method
Conditions: not given
For `CCSC1=N/C(=C\c2ccc3c(c2)OCO3)C(=O)N1C`, the pIC50 was 6.62.
Work on `CSC1=N/C(=C\c2ccc3c(c2)OCO3)C(=O)N1` yielded a pIC50 of 6.96.
Compound `O=C1NC(Nc2ccccc2)=N/C1=C\c1ccc2c(c1)CCO2` has a pIC50 of 7.49.
With `O=C1NC(N2CCC(N3CCCCC3)CC2)=N/C1=C\c1ccc2c(c1)OCO2` the pIC50 was 5.96.

Biological target: Dual specificity protein kinase CLK2 (Mus musculus, UniProt O35491)
Sequence (O35491 whole entry, the tested form may be a part): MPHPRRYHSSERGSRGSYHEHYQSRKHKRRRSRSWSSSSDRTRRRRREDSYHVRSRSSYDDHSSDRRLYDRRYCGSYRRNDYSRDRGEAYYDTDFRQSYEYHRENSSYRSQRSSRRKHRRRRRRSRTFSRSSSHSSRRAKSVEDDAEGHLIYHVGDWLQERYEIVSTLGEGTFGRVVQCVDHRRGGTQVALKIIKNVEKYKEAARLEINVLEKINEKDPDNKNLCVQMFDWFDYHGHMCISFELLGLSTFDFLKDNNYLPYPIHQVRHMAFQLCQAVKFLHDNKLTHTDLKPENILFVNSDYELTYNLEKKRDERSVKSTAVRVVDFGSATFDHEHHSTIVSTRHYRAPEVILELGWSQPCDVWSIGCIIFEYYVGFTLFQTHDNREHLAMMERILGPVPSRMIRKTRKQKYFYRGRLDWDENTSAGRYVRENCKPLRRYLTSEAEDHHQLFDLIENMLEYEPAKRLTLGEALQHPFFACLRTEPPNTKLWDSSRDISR
Test: Inhibition of mouse recombinant GST-fused CLK2 expressed in Escherichia coli using GRSRSRSRSRSR peptide as substrate incubated for 30 mins in presence of ATP by scintillation counting method
Conditions: not given
For `CCSC1=N/C(=C\c2ccc3c(c2)OCO3)C(=O)N1C`, the pIC50 was 6.38.
Work on `CSC1=N/C(=C\c2ccc3c(c2)OCO3)C(=O)N1` yielded a pIC50 of 6.60.
`O=C1NC(Nc2ccccc2)=N/C1=C\c1ccc2c(c1)CCO2` gave a pIC50 of 6.92.
`O=C1NC(N2CCC(N3CCCCC3)CC2)=N/C1=C\c1ccc2c(c1)OCO2` gave a pIC50 of 5.49.

Biological target: Dual specificity protein kinase CLK4 (Mus musculus, UniProt O35493)
Sequence (O35493 whole entry, the tested form may be a part): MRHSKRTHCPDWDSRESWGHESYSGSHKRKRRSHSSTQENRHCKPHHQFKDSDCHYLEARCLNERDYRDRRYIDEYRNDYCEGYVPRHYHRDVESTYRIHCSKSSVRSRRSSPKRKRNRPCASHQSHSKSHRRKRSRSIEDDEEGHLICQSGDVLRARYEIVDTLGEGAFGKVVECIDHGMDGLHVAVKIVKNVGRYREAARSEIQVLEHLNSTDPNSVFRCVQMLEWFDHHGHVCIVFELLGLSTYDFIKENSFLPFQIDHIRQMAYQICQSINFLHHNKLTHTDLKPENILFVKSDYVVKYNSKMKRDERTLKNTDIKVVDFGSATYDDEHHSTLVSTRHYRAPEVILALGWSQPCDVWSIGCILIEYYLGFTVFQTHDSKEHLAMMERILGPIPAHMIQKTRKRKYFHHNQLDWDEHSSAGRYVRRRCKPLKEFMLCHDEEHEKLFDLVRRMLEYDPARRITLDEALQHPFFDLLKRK
Test: Inhibition of GST-fused mouse recombinant CLK4 expressed in Escherichia coli using GRSRSRSRSRSR peptide as substrate incubated for 30 mins in presence of ATP by scintillation counting method
Conditions: not given
`CCSC1=N/C(=C\c2ccc3c(c2)OCO3)C(=O)N1C` gave a pIC50 of 6.96.
With `CSC1=N/C(=C\c2ccc3c(c2)OCO3)C(=O)N1` the pIC50 was 7.10.
With `O=C1NC(Nc2ccccc2)=N/C1=C\c1ccc2c(c1)CCO2` the pIC50 was 7.72.
Compound `O=C1NC(N2CCC(N3CCCCC3)CC2)=N/C1=C\c1ccc2c(c1)OCO2` has a pIC50 of 5.85.

Biological target: Casein kinase 2 (Homo sapiens, UniProt P67870+P68400+P19784+Q8NEV1)
Test: Inhibition of human recombinant CK2 using RRRDDDSDDD peptide as substrate incubated for 30 mins in presence of ATP by scintillation counting method
Assay type: protein assay
Conditions: not given
Work on `CCSC1=N/C(=C\c2ccc3c(c2)OCO3)C(=O)N1C` yielded an IC50 greater than 10000 nM.
In the case of `CSC1=N/C(=C\c2ccc3c(c2)OCO3)C(=O)N1`, the IC50 was 2200 nM.
`O=C1NC(Nc2ccccc2)=N/C1=C\c1ccc2c(c1)CCO2` showed an IC50 of 1100 nM.
With `O=C1NC(N2CCC(N3CCCCC3)CC2)=N/C1=C\c1ccc2c(c1)OCO2` the IC50 was greater than 10000 nM.

Biological target: Cannabinoid receptor 1 (Homo sapiens, UniProt P21554)
Sequence (P21554 whole entry): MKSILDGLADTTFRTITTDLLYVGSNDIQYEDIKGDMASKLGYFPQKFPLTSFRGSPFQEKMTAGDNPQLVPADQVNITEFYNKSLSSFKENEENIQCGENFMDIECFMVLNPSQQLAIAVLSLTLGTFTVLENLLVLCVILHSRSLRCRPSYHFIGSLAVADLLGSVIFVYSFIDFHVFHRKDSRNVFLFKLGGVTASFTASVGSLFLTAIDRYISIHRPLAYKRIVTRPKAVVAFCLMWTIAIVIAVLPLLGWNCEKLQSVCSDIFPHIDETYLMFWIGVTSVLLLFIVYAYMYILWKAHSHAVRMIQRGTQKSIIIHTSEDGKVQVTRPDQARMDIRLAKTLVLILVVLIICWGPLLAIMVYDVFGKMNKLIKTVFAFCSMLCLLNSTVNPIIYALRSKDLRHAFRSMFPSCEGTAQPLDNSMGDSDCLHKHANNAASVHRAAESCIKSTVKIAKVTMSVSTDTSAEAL
Test: Antagonist activity at CP-55940-activated CB1 receptor (unknown origin) at 10 uM by beta-arrestin assay relative to control
Assay type: functional
Set-up: scale not given: the % may be the effect or the level left
Conditions: not given
`CCSC1=N/C(=C\c2ccc3c(c2)OCO3)C(=O)N1C` showed an Activity of -0.7%.
For `CSC1=N/C(=C\c2ccc3c(c2)OCO3)C(=O)N1`, the Activity was -23%.
For `O=C1NC(N2CCC(N3CCCCC3)CC2)=N/C1=C\c1ccc2c(c1)OCO2`, the Activity was -51.1%.

Same assay, conditions: filed as antagonist
Compound `O=C1NC(Nc2ccccc2)=N/C1=C\c1ccc2c(c1)CCO2` has an Activity of 96.4%.

Biological target: T2, Dual specificity tyrosine-phosphorylation-regulated kinase 3 (Homo sapiens, UniProt O43781)
T2 sequence (O43781 whole entry): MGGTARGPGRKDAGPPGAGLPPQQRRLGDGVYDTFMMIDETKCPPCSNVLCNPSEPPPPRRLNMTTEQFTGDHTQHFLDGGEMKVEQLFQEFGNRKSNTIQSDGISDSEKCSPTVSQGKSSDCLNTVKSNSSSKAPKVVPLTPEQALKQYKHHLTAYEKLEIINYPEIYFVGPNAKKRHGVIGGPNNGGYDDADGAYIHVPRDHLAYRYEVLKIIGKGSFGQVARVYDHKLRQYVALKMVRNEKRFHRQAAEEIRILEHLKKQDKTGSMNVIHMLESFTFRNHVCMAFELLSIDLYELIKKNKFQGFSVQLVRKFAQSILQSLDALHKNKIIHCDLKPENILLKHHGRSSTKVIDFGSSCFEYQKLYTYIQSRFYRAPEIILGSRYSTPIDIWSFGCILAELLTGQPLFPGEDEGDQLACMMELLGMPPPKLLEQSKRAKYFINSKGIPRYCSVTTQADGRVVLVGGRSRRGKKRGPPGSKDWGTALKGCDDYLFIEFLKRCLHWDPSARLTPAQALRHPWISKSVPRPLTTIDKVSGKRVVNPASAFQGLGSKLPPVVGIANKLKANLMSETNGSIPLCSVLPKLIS
Test: Inhibition of GST-fused human recombinant DYRK3 expressed in Escherichia coli using GRSRSRSRSRSR peptide as substrate incubated for 30 mins in presence of ATP by scintillation counting method
Conditions: not given
In the case of `CCSC1=N/C(=C\c2ccc3c(c2)OCO3)C(=O)N1C`, the pIC50 was 6.52.
`CSC1=N/C(=C\c2ccc3c(c2)OCO3)C(=O)N1` gave a pIC50 of 6.39.
Work on `O=C1NC(Nc2ccccc2)=N/C1=C\c1ccc2c(c1)CCO2` yielded a pIC50 of 6.62.
With `O=C1NC(N2CCC(N3CCCCC3)CC2)=N/C1=C\c1ccc2c(c1)OCO2` the pIC50 was 5.28.

System: U2OS
Test: Induction of PI3K/mTor-dependent autophagy in human U2OS cells assessed as number of LC3 foci per cell at 10 uM measured after 4 hrs
Assay type: cell-based
Conditions: filed as activator
For `CCSC1=N/C(=C\c2ccc3c(c2)OCO3)C(=O)N1C`, the Activity was 6.8.
With `CSC1=N/C(=C\c2ccc3c(c2)OCO3)C(=O)N1` the Activity was 5.9.
`O=C1NC(Nc2ccccc2)=N/C1=C\c1ccc2c(c1)CCO2` showed an Activity of 10.2.
`O=C1NC(N2CCC(N3CCCCC3)CC2)=N/C1=C\c1ccc2c(c1)OCO2` gave an Activity of 7.1.

System: HT-22
Test: Neuroprotective activity against glutamate-induced cell death in mouse HT-22 cells treated for 24 hrs by MTS assay
Assay type: functional, cell-based
Conditions: HT-22, 24 h
For `O=C1NC(Nc2ccccc2)=N/C1=C\c1ccc2c(c1)CCO2`, the pEC50 was 5.15.

Biological target: Glycogen synthase kinase-3 (Sus scrofa, UniProt B2LUN4+I6LNT8)
Test: Inhibition of porcine brain GSK-3alpha/beta using YRRAAVPPSPSLSRHSSPHQpSEDEEE as substrate incubated for 30 mins in presence of ATP by scintillation counting method
Assay type: tissue-based
Conditions: not given
For `CCSC1=N/C(=C\c2ccc3c(c2)OCO3)C(=O)N1C`, the IC50 was 1100 nM.
In the case of `CSC1=N/C(=C\c2ccc3c(c2)OCO3)C(=O)N1`, the IC50 was 1800 nM.
`O=C1NC(Nc2ccccc2)=N/C1=C\c1ccc2c(c1)CCO2` gave an IC50 greater than 10000 nM.
`O=C1NC(N2CCC(N3CCCCC3)CC2)=N/C1=C\c1ccc2c(c1)OCO2` showed an IC50 of 6200 nM.
